Data from patent US11708366B2, “Heteroaryl substituted spiropiperidinyl derivatives and pharmaceutical uses thereof” (Novartis AG, priority 2020, dated 2023).

What was measured:
LTC4S [1] = target: T1, LTC4S (Homo sapiens (Human), UniProt Q16873); test: Human LTC4S enzymatic assay (HTRF detection of LTC4-Me); type: biochemical
Method: A. Human LTC4S Enzymatic Assay:
LTC4 synthase catalyzes the conversion of Leukotriene A4 (LTA4) to Leukotriene C4 (LTC4) in the presence of reduced glutathione (GSH) as a co-substrate. For compound testing, compounds are delivered as 10 mM stock solutions in 90% DMSO in matrix tubes. From this, a 1:3 dilution dose response series is prepared with a starting concentration of 30 μM to 0.1 nM. For the enzymatic assay 97.5 nL of compound/DMSO solution is transferred to each well and 5 μL enzyme solution (assay buffer: 50 mM bis-tris propane pH 7.3, 250 mM NaCl, 10 mM MgCl2, 0.001% MGN3) is added to the wells. […] The enzyme compound mixture is incubated at room temperature for 15 minutes prior to the addition of 5 μL substrate solution. […] A final substrate concentration of 400 μM GSH and 5 μM LTA4-Me is chosen.
The LTA4-Me is obtained commercially in 2% triethylamine/hexane solvent. As this solvent is incompatible with the HTRF assay it has to be exchanged with DMSO according to following procedure: add 50 μL of 100% DMSO to 50 μL LTA4-Me (3 mM) in a 2 mL Eppendorf tube and mix gently by inverting the tube. The triethylamine/hexane is evaporated under a constant argon flux at room temperature. The DMSO-LTA4-Me (3 mM) is aliquoted and stored at −20° C. for not longer than 4 weeks, as it is not stable in DMSO due to its oxidizing properties.
Upon addition of the substrate, the plate is immediately placed on a shaker for 5 min at room temperature. Immediately after the 5 min incubation 5 μL of H2O2 solution is added to all wells to stop the reaction. The plate contents are mixed before the addition of detection reagents. […] For the detection of the product of the enzymatic reaction LTC4-Me, the Cisbio LTC4-HTRF kit is used as the assay is compatible with the detection of LTC4-Me. 5 μL of diluted LTC4-d2 conjugate (according to manufacturer's protocol) are added to all wells of the assay plate and the contents gently mixed and incubated for 5 minutes at room temperature. […] The percent inhibition for each point of an inhibition curve is calculated after data interpolation using the LTC4-Me standard curve, to convert the HTRF signal to the amount of LTC4-Me produced within the LTC4S catalyzed reaction on each plate. The data is analyzed using parametric curve fitting to determine IC50 values of LTC4S inhibitors.

LTC4S [2] = target: T1, LTC4S; test: Human whole blood HTRF assay (LTC4 release after calcium ionophore A23187); type: cell-based; conditions: human whole blood diluted 1:3, 4 h incubation, calcium ionophore A23187 stimulation, LTC4 by HTRF; read-out: human whole blood HTRF IC50
[3] = 0.75 nM enzyme, 400 μM GSH, 5 μM LTA4-Me, 15 min pre-incubation, read-out: human LTC4S IC50 (enzymatic assay)

Structure (SMILES) | IC50 (LTC4S [1]; [3]) | IC50 (LTC4S [2]) | IC50 (LTC4S [1])
O=C1CCCC2(CCN(c3ncc(-c4ccc(F)cc4)o3)CC2)N1c1ccc(Cl)c(F)c1 [Example 21, 1-(4-chloro-3-fluorophenyl)-9-(5-(4-fluorophenyl)oxazol-2-yl)-1,9-diazaspiro[5.5]undecan-2-one] | 4 nM | 7 nM | –
O=C1CCCC2(CCN(c3ncc4ccc(C(F)(F)F)cc4n3)CC2)N1c1ccc(Cl)c(F)c1 [Example 4, 1-(4-chloro-3-fluorophenyl)-9-(7-(trifluoromethyl)quinazolin-2-yl)-1,9-diazaspiro[5.5]undecan-2-one] | 7 nM | 50 nM | –
O=C1CCCC2(CCN(c3nc(N4CCCC4)nnc3O)CC2)N1c1ccc(Cl)c(F)c1 [Example 8, 1-(4-chloro-3-fluorophenyl)-9-(6-hydroxy-3-(pyrrolidin-1-yl)-1,2,4-triazin-5-yl)-1,9-diazaspiro[5.5]undecan-2-one] | 7 nM | – | –
O=C1CCCC2(CCN(c3cc(N4CC(F)(F)C(F)(F)C4)ncn3)CC2)N1c1ccc(Cl)c(F)c1 [Example 44, 1-(4-chloro-3-fluorophenyl)-9-(6-(3,3,4,4-tetrafluoropyrrolidin-1-yl)pyrimidin-4-yl)-1,9-diazaspiro[5.5]undecan-2-one] | 13 nM | – | –
O=C1CCCC2(CCN(c3noc([C@H]4C[C@@H]4C(F)(F)F)n3)CC2)N1c1ccc(Cl)c(F)c1 [Example 6b, 1-(4-chloro-3-fluorophenyl)-9-(5-((1S,2S)-2-(trifluoromethyl)cyclopropyl)-1,2,4-oxadiazol-3-yl)-1,9-diazaspiro[5.5]undecan-2-one, or 1-(4-chloro-3-fluorophenyl)-9-(5-((1R,2R)-2-(trifluoromethyl)cyclopropyl)-1,2,4-oxadiazol-3-yl)-1,9-diazaspiro[5.5]undecan-2-one] | 44 nM | – | –
O=C1CCCC2(CCN(c3nccc(N4CC5(CC5)C4)n3)CC2)N1c1ccc(Cl)c(F)c1 [Example 35b, 9-(4-(5-azaspiro[2.3]hexan-5-yl)pyrimidin-2-yl)-1-(4-chloro-3-fluorophenyl)-1,9-diazaspiro[5.5]undecan-2-one] | – | – | 3 nM
O=C1CCCC2(CCN(c3nc4ccc(C(F)(F)F)cc4o3)CC2)N1c1ccc(Cl)c(F)c1 [Example 2, 1-(4-chloro-3-fluorophenyl)-9-(6-(trifluoromethyl)benzo[d]oxazol-2-yl)-1,9-diazaspiro[5.5]undecan-2-one] | 36 nM | – | –
O=C1CCCC2(CCN(c3cc(O[C@H]4CCOC4)nc(Cl)n3)CC2)N1c1ccc(F)c(F)c1 [Example 71, (S)-9-(2-chloro-6-((tetrahydrofuran-3-yl)oxy)pyrimidin-4-yl)-1-(3,4-difluorophenyl)-1,9-diazaspiro[5.5]undecan-2-one] | – | 580 nM | –
O=C1CCCC2(CCN(c3cc(Oc4cccc(Cl)c4)cc[n+]3[O-])CC2)N1c1ccc(F)c(F)c1 [Example 34, 4-(3-chlorophenoxy)-2-(1-(3,4-difluorophenyl)-2-oxo-1,9-diazaspiro[5.5]undecan-9-yl)pyridine 1-oxide] | – | 2 nM | –
O=C1CCCC2(CCN(c3cc(-n4cc(C(F)(F)F)cn4)nc(CO)n3)CC2)N1c1ccc(F)c(F)c1 (racemic) [Example 67, rac-1-(3,4-difluorophenyl)-9-(2-(1-hydroxymethyl)-6-(4-(trifluoromethyl)-1H-pyrazol-1-yl)pyrimidin-4-yl)1,9-diazaspiro[5.5]undecane-2-one] | – | 2 nM | –
O=C1CCCC2(CCN(c3ncnc(N4CCC(O)(C(F)(F)F)CC4)n3)CC2)N1c1ccc(F)c(F)c1 [Example 40, 1-(3,4-difluorophenyl)-9-(4-(4-hydroxy-4-(trifluoromethyl)piperidin-1-yl)-1,3,5-triazin-2-yl)-1,9-diazaspiro[5.5]undecan-2-one] | – | 4 nM | –
Nc1nc(N[C@@H]2CCOC2)cc(N2CCC3(CCCC(=O)N3c3ccc(F)c(F)c3)CC2)n1 [Example 112, (R)-9-(2-amino-6-((tetrahydrofuran-3-yl)amino)pyrimidin-4-yl)-1-(3,4-difluorophenyl)-1,9-diazaspiro[5.5]undecan-2-one] | – | 67 nM | –
